Results reported in patent US8329904B2, “Azacyclic derivatives” (Hoffmann-La Roche Inc., priority 2009, dated 2012).
pIC50: −log10 of the molar value.

Each compound was assayed against T1, human HSL (Homo sapiens, UniProt Q05469) (assay: Human Hormone-Sensitive Lipase (HSL) Enzyme Inhibition Assay). Conditions: colorimetric assay, 2,3-dimercapto-1-propanol tributyrate (DMPT) substrate, 37° C. for 20 minutes, absorbance at 405 nm; read-out: HSL hum IC50.
T1 construct: overlapping PCR to generate a full length human HSL ORF with a 3′-His6 tag; His6 (C); made in house; host or cells: High 5 insect cells (baculovirus, pFast-BAC)
T1 sequence (Q05469 1-1076): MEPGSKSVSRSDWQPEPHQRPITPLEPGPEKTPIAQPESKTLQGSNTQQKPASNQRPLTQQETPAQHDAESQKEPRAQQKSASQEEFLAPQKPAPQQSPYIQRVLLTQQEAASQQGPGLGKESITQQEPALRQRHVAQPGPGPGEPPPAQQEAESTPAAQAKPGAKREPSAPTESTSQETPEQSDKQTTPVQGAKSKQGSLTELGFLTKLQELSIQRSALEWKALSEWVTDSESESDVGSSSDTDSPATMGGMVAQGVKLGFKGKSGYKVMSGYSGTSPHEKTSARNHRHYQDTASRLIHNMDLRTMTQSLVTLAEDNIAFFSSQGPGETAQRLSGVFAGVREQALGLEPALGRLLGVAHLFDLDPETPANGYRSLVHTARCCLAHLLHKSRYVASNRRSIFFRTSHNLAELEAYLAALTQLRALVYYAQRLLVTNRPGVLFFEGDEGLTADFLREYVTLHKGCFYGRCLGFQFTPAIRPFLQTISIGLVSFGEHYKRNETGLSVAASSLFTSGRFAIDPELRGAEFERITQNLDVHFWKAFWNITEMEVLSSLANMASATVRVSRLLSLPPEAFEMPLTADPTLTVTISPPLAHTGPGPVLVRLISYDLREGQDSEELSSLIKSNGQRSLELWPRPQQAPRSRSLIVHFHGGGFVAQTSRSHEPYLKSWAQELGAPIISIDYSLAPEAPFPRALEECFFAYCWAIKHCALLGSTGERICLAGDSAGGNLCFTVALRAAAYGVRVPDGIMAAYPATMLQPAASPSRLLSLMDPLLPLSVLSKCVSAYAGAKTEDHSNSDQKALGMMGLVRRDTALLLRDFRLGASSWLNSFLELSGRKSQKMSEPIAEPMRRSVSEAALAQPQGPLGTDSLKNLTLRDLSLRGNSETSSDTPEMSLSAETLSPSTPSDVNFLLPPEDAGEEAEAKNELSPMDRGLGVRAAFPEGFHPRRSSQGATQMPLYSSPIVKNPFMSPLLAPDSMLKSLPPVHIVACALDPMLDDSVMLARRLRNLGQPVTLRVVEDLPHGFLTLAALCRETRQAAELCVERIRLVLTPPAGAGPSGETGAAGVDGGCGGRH
Type: biochemical
Outline: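 Colorimetric thioester hydrolysis: compounds in DMSO series mixed with DMPT (1.5 mM) in MOPS pH 7.2 with BSA, then baculovirus-expressed His6-tagged full-length human HSL added, 37° C, 20 min. DTNB plus detergents added, 15 min room temperature, absorbance at 405 nm.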
In the case of `O=C(COc1ccccc1)N1CCC2(CC1)CCN(c1ccc(OC(F)(F)F)cc1)C2=O` [Example 221, 8-(2-Phenoxy-acetyl)-2-(4-trifluoromethoxy-phenyl)-2,8-diaza-spiro[4.5]decan-1-one], the pIC50 was 7.22.
With `CC(C(=O)N1CCC2(CC1)CCN(c1ccc(OC(F)(F)F)cc1)C2=O)c1ccccc1` (stereo not drawn) [Example 222, 8-(2-Phenyl-propionyl)-2-(4-trifluoromethoxy-phenyl)-2,8-diaza-spiro[4.5]decan-1-one] the pIC50 was 7.00.
`CCC(C(=O)N1CCC2(CC1)CCN(c1ccc(OC(F)(F)F)cc1)C2=O)c1ccccc1` (stereo not drawn) [Example 223, 8-(2-Phenyl-butyryl)-2-(4-trifluoromethoxy-phenyl)-2,8-diaza-spiro[4.5]decan-1-one] showed a pIC50 of 6.96.
With `Cc1nc(C(=O)N2CCC3(CC2)CCN(c2ccc(OC(F)(F)F)cc2)C3=O)cs1` [Example 224, 8-(2-Methyl-thiazole-4-carbonyl)-2-(4-trifluoromethoxy-phenyl)-2,8-diaza-spiro[4.5]decan-1-one] the pIC50 was 6.09.
`O=C(CCl)N1CCC2(CC1)CCN(c1ccc(OC(F)(F)F)cc1)C2=O` [Example 225, 8-(2-Chloro-acetyl)-2-(4-trifluoromethoxy-phenyl)-2,8-diaza-spiro[4.5]decan-1-one] gave a pIC50 of 6.49.
With `O=C(COC1CCCC1)N1CCC2(CC1)CCN(c1ccc(OC(F)(F)F)cc1)C2=O` [Example 226, 8-(2-Cyclopentyloxy-acetyl)-2-(4-trifluoromethoxy-phenyl)-2,8-diaza-spiro[4.5]decan-1-one] the pIC50 was 7.30.
`O=C1N(c2ccc(C(F)(F)F)c(Cl)c2)CCC12CCN(S(=O)(=O)c1ccccc1Cl)CC2` [Example 227, 8-(2-Chloro-benzenesulfonyl)-2-(3-chloro-4-trifluoromethyl-phenyl)-2,8-diaza-spiro[4.5]decan-1-one] gave a pIC50 of 7.10.
`O=C1N(c2ccc3c(c2)OC(F)(F)O3)CCC12CCN(S(=O)(=O)c1ccccc1Cl)CC2` [Example 228, 8-(2-Chloro-benzenesulfonyl)-2-(2,2-difluoro-benzo[1,3]-dioxol-5-yl)-2,8-diaza-spiro[4.5]decan-1-one] showed a pIC50 of 7.22.
In the case of `O=C1N(c2ccc(C3(O)COC3)cc2)CCC12CCN(S(=O)(=O)c1ccccc1Cl)CC2` [Example 229, 8-(2-Chloro-benzenesulfonyl)-2-[4-(3-hydroxy-oxetan-3-yl)-phenyl]-2,8-diaza-spiro[4.5]decan-1-one], the pIC50 was 6.62.
In the case of `O=C1N(c2ccc(C3(F)COC3)cc2)CCC12CCN(S(=O)(=O)c1ccccc1Cl)CC2` [Example 230, 8-(2-Chloro-benzenesulfonyl)-2-[4-(3-fluoro-oxetan-3-yl)-phenyl]-2,8-diaza-spiro[4.5]decan-1-one], the pIC50 was 7.52.
In the case of `O=C1N(c2ccc(C3(O)CCC3)cc2)CCC12CCN(S(=O)(=O)c1ccccc1Cl)CC2` [Example 231, 8-(2-Chloro-benzenesulfonyl)-2-[4-(1-hydroxy-cyclobutyl)-phenyl]-2,8-diaza-spiro[4.5]decan-1-one], the pIC50 was 7.70.
In the case of `Cc1cc(CS(=O)(=O)N2CCC3(CCN(c4ccc(OC(F)(F)F)cc4)C3=O)CC2)no1` [Example 232, 8-(5-Methyl-isoxazol-3-ylmethanesulfonyl)-2-(4-trifluoromethoxy-phenyl)-2,8-diaza-spiro[4.5]decan-1-one], the pIC50 was 7.05.
For `CC(C)c1cc(CS(=O)(=O)N2CCC3(CCN(c4ccc(OC(F)(F)F)cc4)C3=O)CC2)on1` [Example 233, 8-(3-Isopropyl-isoxazol-5-ylmethanesulfonyl)-2-(4-trifluoromethoxy-phenyl)-2,8-diaza-spiro[4.5]decan-1-one], the pIC50 was 6.70.
`COC(=O)c1cccc(C)c1S(=O)(=O)N1CCC2(CCN(c3ccc(OC(F)(F)F)cc3)C2=O)CC1` [Example 234, 3-Methyl-2-[1-oxo-2-(4-trifluoromethoxy-phenyl)-2,8-diaza-spiro[4.5]decane-8-sulfonyl]-benzoic acid methyl ester] gave a pIC50 of 6.82.
Compound `O=C1N(Cc2cccc(Cl)c2)CCC12CCN(S(=O)(=O)c1ccccc1Cl)CC2` [Example 235, 8-(2-Chloro-benzenesulfonyl)-2-(3-chloro-benzyl)-2,8-diaza-spiro[4.5]decan-1-one] has a pIC50 of 6.40.
`O=C1N(CCc2ccccc2)CCC12CCN(S(=O)(=O)c1ccccc1Cl)CC2` [Example 236, 8-(2-Chloro-benzenesulfonyl)-2-phenethyl-2,8-diaza-spiro[4.5]decan-1-one] showed a pIC50 of 7.30.
With `CCc1ccc(CCN2CCC3(CCN(S(=O)(=O)c4ccccc4Cl)CC3)C2=O)cc1` [Example 237, 8-(2-Chloro-benzenesulfonyl)-2-[2-(4-ethyl-phenyl)-ethyl]-2,8-diaza-spiro[4.5]decan-1-one] the pIC50 was 7.40.
With `CC(C)(C)c1ccc(CCN2CCC3(CCN(S(=O)(=O)c4ccccc4Cl)CC3)C2=O)cc1` [Example 238, 2-[2-(4-tert-Butyl-phenyl)-ethyl]-8-(2-chloro-benzenesulfonyl)-2,8-diaza-spiro[4.5]decan-1-one] the pIC50 was 7.00.
In the case of `O=C1N(CCc2ccc(F)cc2)CCC12CCN(S(=O)(=O)c1ccccc1Cl)CC2` [Example 239, 8-(2-Chloro-benzenesulfonyl)-2-[2-(4-fluoro-phenyl)-ethyl]-2,8-diaza-spiro[4.5]decan-1-one], the pIC50 was 7.22.
`COc1ccc(CCN2CCC3(CCN(S(=O)(=O)c4ccccc4Cl)CC3)C2=O)cc1` [Example 240, 8-(2-Chloro-benzenesulfonyl)-2-[2-(4-methoxy-phenyl)-ethyl]-2,8-diaza-spiro[4.5]decan-1-one] showed a pIC50 of 7.22.
`O=C1N(CCCc2ccccc2)CCC12CCN(S(=O)(=O)c1ccccc1Cl)CC2` [Example 241, 8-(2-Chloro-benzenesulfonyl)-2-(3-phenyl-propyl)-2,8-diaza-spiro[4.5]decan-1-one] was tested, and the pIC50 was 7.05.
Work on `O=C1N(CCc2ccccc2Cl)CCC12CCN(S(=O)(=O)c1ccccc1Cl)CC2` [Example 242, 8-(2-Chloro-benzenesulfonyl)-2-[2-(2-chloro-phenyl)-ethyl]-2,8-diaza-spiro[4.5]decan-1-one] yielded a pIC50 of 6.68.
`O=C1N(CCc2cccc(F)c2)CCC12CCN(S(=O)(=O)c1ccccc1Cl)CC2` [Example 243, 8-(2-Chloro-benzenesulfonyl)-2-[2-(3-fluoro-phenyl)-ethyl]-2,8-diaza-spiro[4.5]decan-1-one] gave a pIC50 of 7.30.
`COc1cccc(CCN2CCC3(CCN(S(=O)(=O)c4ccccc4Cl)CC3)C2=O)c1` [Example 244, 8-(2-Chloro-benzenesulfonyl)-2-[2-(3-methoxy-phenyl)-ethyl]-2,8-diaza-spiro[4.5]decan-1-one] showed a pIC50 of 6.64.
`O=C1N(CCc2cccc(C(F)(F)F)c2)CCC12CCN(S(=O)(=O)c1ccccc1Cl)CC2` [Example 245, 8-(2-Chloro-benzenesulfonyl)-2-[2-(3-trifluoromethyl-phenyl)-ethyl]-2,8-diaza-spiro[4.5]decan-1-one] was tested, and the pIC50 was 7.00.
`O=C1N(CCCCc2ccccc2)CCC12CCN(S(=O)(=O)c1ccccc1Cl)CC2` [Example 246, 8-(2-Chloro-benzenesulfonyl)-2-(4-phenyl-butyl)-2,8-diaza-spiro[4.5]decan-1-one] gave a pIC50 of 7.10.
Compound `O=C1N(CCc2cccc(Cl)c2)CCC12CCN(S(=O)(=O)c1ccccc1Cl)CC2` [Example 247, 8-(2-Chloro-benzenesulfonyl)-2-[2-(3-chloro-phenyl)-ethyl]-2,8-diaza-spiro[4.5]decan-1-one] has a pIC50 of 7.10.
For `O=C1N(CCc2ccc(Cl)c(Cl)c2)CCC12CCN(S(=O)(=O)c1ccccc1Cl)CC2` [Example 248, 8-(2-Chloro-benzenesulfonyl)-2-[2-(3,4-dichloro-phenyl)-ethyl]-2,8-diaza-spiro[4.5]decan-1-one], the pIC50 was 7.15.
Work on `CC(Cc1ccc(F)cc1)N1CCC2(CCN(S(=O)(=O)c3ccccc3Cl)CC2)C1=O` (stereo not drawn) [Example 249, 8-(2-Chloro-benzenesulfonyl)-2-[2-(4-fluoro-phenyl)-1-methyl-ethyl]-2,8-diaza-spiro[4.5]decan-1-one] yielded a pIC50 of 6.34.
In the case of `CCc1ccc(N2CCC3(CCN(S(=O)(=O)c4ccccc4Cl)CC3)C2=O)cn1` [Example 250, 8-(2-Chloro-benzenesulfonyl)-2-(6-ethyl-pyridin-3-yl)-2,8-diaza-spiro[4.5]decan-1-one], the pIC50 was 6.96.
